Data on 36 compounds can be found in ChEMBL document CHEMBL1157539, “Thousands of chemical starting points for antimalarial lead identification” (Nature, 2010).

Molecules are shown by their SMILES.

The assay relates to Plasmodium falciparum. Kind of assay: GSK_TCMDC: Inhibition of Plasmodium falciparum 3D7 in whole erythrocytes, using parasite LDH activity as an index of growth. As to conditions: Plasmodium falciparum, 3D7. In kind it is functional, organism-based.
On to `Cc1ccccc1CNc1ccc2nc(N)nc(N)c2c1`, for which the XC50 was found to be 171 nM.

Turning to `N=C(N)c1cccc(-c2cc(-c3cccc(C(=N)N)c3)on2)c1`, the XC50 was determined as 86 nM. Regarding `COc1ccc2c(NN=Cc3ccccc3F)ccnc2c1`, the XC50 was determined as 213 nM. Compound `CCNc1cc(C(=O)N[C@@H](Cc2ccccc2)[C@H](O)CNC2(Cc3cccc(Cl)c3)CCC2)cc(N2CCCCS2(=O)=O)c1` showed an XC50 of 1180 nM.

`CCc1cccc2c(C#N)cn(CC(=O)NCCc3ccccc3)c12` showed an XC50 of 887 nM. For `CC(C)(CNCc1ccc(C(F)(F)F)cc1)c1nc(-c2ccc(Cl)c(O)c2)c(-c2ccncc2)[nH]1`, the XC50 was found to be 734 nM. Compound `COc1cccc2c(NN=Cc3ccc(Cl)cc3)ccnc12` returned an XC50 of 814 nM.

For the compound `CC(C)CNC(=O)c1cncc(-c2ccc(CN3CCC(N4CCCC4)CC3)cc2)c1`, the XC50 was 689 nM. `CC(=O)N[C@H](C(=O)Nc1ccc(-c2ccc(-c3nc4cc(C(F)(F)F)ccc4[nH]3)s2)cc1)C(C)C` gave an XC50 of 1030 nM. With `COc1ccccc1NC(=O)c1cc(C(=O)c2cc(Cl)ccc2O)cn(-c2ccccc2OC)c1=O`, the XC50 was determined as 943 nM.

`CCOc1cc(C(C)C)ccc1C1CCN(CCCCNC(=O)c2ccc(NC(=O)c3ccc(Cl)cc3)cc2)CC1` gave an XC50 of 813 nM. The same measure for `COc1ccc(-c2ncnc(C(F)(F)F)c2-c2ccc(Cl)cc2)c(O)c1`: 805 nM; for `CC(CNC(=N)c1cccc(C(=N)NCC(C)Oc2cccc(C3CCCCC3)c2)n1)Oc1cccc(C2CCCCC2)c1` (stereo unspecified): 917 nM.

As for `COc1cc(Nc2ncc3c(C)nc(-c4cc5ccccc5[nH]4)n3n2)cc(OC)c1OC`, the XC50 is 1020 nM. The compound `Cc1onc(-c2c(Cl)cccc2Cl)c1C(=O)N1CCc2cc3nccc(N4CCN5CCC[C@H]5C4)c3cc21` displayed an XC50 of 768 nM. For the compound `Cc1cc(N(CCO)CCCN2CCCCC2)nc(Nc2ccc(Cl)cc2)n1`, the XC50 was 547 nM. `COc1cccc(Cc2cnc3nc(N)nc(N)c3c2C)c1` yielded an XC50 of 173 nM.

With `CN(CCCCCNC(=O)/C=C/c1ccc(Cl)c(Cl)c1)CCc1c[nH]c2ccccc12`, the XC50 was found to be 874 nM. In the case of `CN(CCc1ccccc1)c1ncc(-c2ccccc2CNCc2ccccc2O)cn1`, the XC50 was found to be 1020 nM. In the case of `CC(C)CNCc1ccc(-c2cccc(CNC3CCN(Cc4ccccc4)CC3)c2)cc1` it was 239 nM; in that of `O=C(OCc1ccccc1)N1CCc2c([nH]c3ccccc23)C1CCC(F)(F)F` (stereo unspecified), 425 nM. Consider `COCCNCc1ccc(-c2ccc(CN(C(=O)NC3CCCCC3)C3CCN(Cc4ccccc4)CC3)cc2)cc1`, for which the XC50 was 960 nM. `O=C(Nc1ccc(-c2cccc(-c3nc4cc(C(F)(F)F)ccc4[nH]3)c2)cc1)c1ccncc1`: the XC50 was 664 nM. For the compound `Nc1c2ccccc2nc2ccc(-c3ccccc3)cc12`, the XC50 is 140 nM. The compound `COc1ccc2[nH]ccc(=NN=Cc3ccccc3Cl)c2c1` displayed an XC50 of 664 nM. In turn, `O=c1cc(NCCCNC2CCOc3c(Cl)cc(Cl)cc32)[nH]c2ccccc12` (stereo unspecified) registered an XC50 of 724 nM. In the case of `COCCn1c(C)nc2ccccc2c1=O` it was 1460 nM; in that of `COc1cc(C(=O)NC2CCc3ccccc32)cc(Cl)c1OC` (stereo unspecified), 1100 nM. In the case of `c1ccc(CN2CCN(CCCCNc3c4ccccc4nc4ccccc34)CC2)cc1` it was 117 nM; in that of `OCc1ccc2nc3c(cc2c1)-c1cccc2cccc-3c12`, 664 nM. On to `O=C(NC12CC3CC(CC(C3)C1)C2)C(=O)c1c[nH]c2ccccc12`, for which the XC50 was found to be 232 nM. In the case of `Cc1cccc2nc(-c3ccc(-c4cccc(CNCCc5ccncc5)c4)s3)[nH]c12` it was 138 nM; in that of `O=C(NC1CCCCC1)N(Cc1ccc(-c2ccc(CNC3CCCC3)cc2)cc1)C1CCN(Cc2ccccc2)CC1`, 780 nM; in that of `CCc1cn(C)c2c(N3CCCC3=O)cc(C(=O)N[C@@H](Cc3ccccc3)[C@H](O)CNC3CCCCC3)cc12`, 118 nM.

For `O=C(c1cc(C(=O)NCc2ccc(Cl)cc2)c(=O)n(Cc2ccc(Cl)cc2)c1)c1cc(F)ccc1O`, the XC50 was determined as 949 nM. The same measure for `c1ccc(CNCCn2c(-c3ccc4c(c3)CCO4)nc3c(N4CCCC4)cccc32)cc1`: 1130 nM.
